pIC50: −log10 of the molar value.
target: Recombinant human CYP51A1 (lanosterol-14a-demethylase) (Homo sapiens (Human), UniProt Q16850); test: Inhibition of CYP51A1, fluorescent substrate BOMCC; assay type: biochemical; settings: recombinant human CYP51A1 coexpressed with CYP reductase in bacterial membranes, 8-point concentration-response, read-out: CYP51 IC50
Text: Method: Recombinant human CYP51A1 (lanosterol-14a-demethylase) enzyme was coexpressed with CYP reductase in bacterial membranes and the fluorescent substrate BOMCC (a nonnatural substrate that causes increases in fluorescence upon CYP51A1-dependent demethylation) was used to obtain 8-point dose concentration-response curves for each compound.

Chain of Recombinant human CYP51A1 (lanosterol-14a-demethylase) (Q16850 whole entry): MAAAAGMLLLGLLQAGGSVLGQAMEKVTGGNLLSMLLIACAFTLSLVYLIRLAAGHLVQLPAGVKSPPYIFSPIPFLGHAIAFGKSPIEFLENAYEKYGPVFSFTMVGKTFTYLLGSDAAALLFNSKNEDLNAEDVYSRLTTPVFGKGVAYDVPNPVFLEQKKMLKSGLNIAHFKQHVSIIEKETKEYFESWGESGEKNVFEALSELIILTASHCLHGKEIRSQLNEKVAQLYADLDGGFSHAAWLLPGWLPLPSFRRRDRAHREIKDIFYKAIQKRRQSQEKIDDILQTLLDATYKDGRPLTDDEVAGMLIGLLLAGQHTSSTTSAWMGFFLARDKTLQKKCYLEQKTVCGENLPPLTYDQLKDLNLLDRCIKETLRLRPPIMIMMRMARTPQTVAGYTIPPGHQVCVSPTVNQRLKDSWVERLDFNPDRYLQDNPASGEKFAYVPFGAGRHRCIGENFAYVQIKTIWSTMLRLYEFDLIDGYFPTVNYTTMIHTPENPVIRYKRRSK

| pIC50 | Structure (SMILES) |
| --- | --- |
| 6.00 to 7.00 | COC(=O)N(CCc1ccc(Cl)c(Cl)c1)CC(O)c1cccnc1 (stereo not shown) [compound 83, Methyl N-[2-(3,4-dichlorophenyl)ethyl] -N-[2-hydroxy-2-(3-pyridyl)ethyl]carbam ate] |
| 6.00 to 7.00 | O=C(Cc1ccc(C(F)(F)F)nc1)N(CC(O)c1cnccn1)C1CCC1 (stereo not shown) [compound 85] |
| 6.00 to 7.00 | O=C(Cc1ccc(Cl)c(Cl)c1)N(C[C@@H](O)c1cccnc1)C1CC1 [compound 86, N-cyclopropyl-2-(3,4-dichlorophenyl)-N-[(2S)-2-hydroxy-2-(3-pyridyl)ethyl]acetamide] |
| 6.00 to 7.00 | O=C(Cc1ccc(C(F)(F)F)nc1)N(CC1CCC1)CC(O)c1cccnn1 (stereo not shown) [compound 87] |
| < 6.00 | Cc1ccncc1C(O)CN(CC1COC1)C(=O)Cc1ccc(C(F)(F)F)nc1 (stereo not shown) [compound 89, N-[2-hydroxy-2-(4-methyl-3-pyridyl)ethyl] -N-(oxetan-3-ylmethyl)-2-[6-(trifluoromethyl)-3-pyridyl]acetamide] |
| ≥ 7.00 | CC(C)c1ccncc1C(O)CN(CC1COC1)C(=O)Cc1ccc(C(F)(F)F)nc1 (stereo not shown) [compound 90, N-[2-hydroxy-2-(4-isopropyl-3-pyridyl)ethyl]-N-(oxetan-3-ylmethyl)-2-[6-(trifluoromethyl)-3-pyridyl]acetamide] |
| < 6.00 | CCC(=O)N(C[C@@H](O)c1cccnc1)C1Cc2cnc(C(F)(F)F)cc2C1 (stereo partly drawn) [compound 93, N-[(2S)-2-hydroxy-2-(3-pyridyl)ethyl]-N-[3-(trifluoromethyl)-6,7-dihydro-5H-cyclopenta[c]pyridin-6-yl]propanamide] |
| 6.00 to 7.00 | CC(C)N(C[C@@H](O)c1cccnc1)C(=O)Cc1cnc(C(F)(F)F)nc1 [compound 94, N-[(2S)-2-hydroxy-2-(3-pyridyl)ethyl]-N-isopropyl-2-[2-(trifluoromethyl)pyrimidin-5-yl]acetamide] |
| 6.00 to 7.00 | CCCN(CC(O)c1cccnc1)C(=O)Cc1ccc(F)c(F)c1 (stereo not shown) [compound 95, 2-(3,4-difluorophenyl)-N-(2-hydroxy-2-(pyridin-3-yl)ethyl)-N-propylacetamide] |
| 6.00 to 7.00 | CCCN(CC(O)c1cnccn1)C(=O)Cc1ccc(Cl)c(Cl)c1 (stereo not shown) [compound 96] |
| ≥ 7.00 | CCCN(CC(O)c1cccnn1)C(=O)Cc1ccc(Cl)c(Cl)c1 (stereo not shown) [compound 97] |
| ≥ 7.00 | CCCN(C[C@@H](O)c1cccnc1)C(=O)C1CCc2cc(Cl)c(Cl)cc2C1 (stereo partly drawn) [compound 98, 6,7-dichloro-N-[(2S)-2-hydroxy-2-(3-pyridyl)ethyl]-N-propyl-tetralin-2-carboxamide] |
| 6.00 to 7.00 | CCCN(C[C@@H](O)c1cccnc1)C(=O)Cc1ccc(C)c(C)c1 [compound 99, 2-(3,4-dimethylphenyl)-N-[(2S)-2-hydroxy-2-(3-pyridyl)ethyl]-N-propyl-acetamide] |
| < 6.00 | CCCN(C[C@@H](O)c1cccnc1)C(=O)c1nc2cc(Cl)c(Cl)cc2[nH]1 [compound 101, 5,6-dichloro-N-[(2S)-2-hydroxy-2-(3-pyridyl)ethyl]-N-propyl-1 H-benzimidazole-2-carboxamide] |
| < 6.00 | CCCN(CC(O)c1ccc(OC)nc1)C(=O)Cc1ccc(Cl)c(Cl)c1 (stereo not shown) [compound 102, 2-(3,4-dichlorophenyl)-N-[2-hydroxy-2-(6-methoxy-3-pyridyl)ethyl]-N-propyl-acetamide] |
| < 6.00 | CCCN(CC(O)c1cncc(Br)c1)C(=O)Cc1ccc(Cl)c(Cl)c1 (stereo not shown) [compound 103, N-[2-(5-bromo-3-pyridyl)-2-hydroxyethyl]-2-(3,4-dichlorophenyl)-N-propyl-acetamide] |
| < 6.00 | CCCN(C[C@@H](O)c1cccnc1)C(=O)Cc1cncnc1 [compound 104, N-[(2S)-2-hydroxy-2-(3-pyridyl)ethyl]-N-propyl-2-pyrimidin-5-yl-acetamide] |
| ≥ 7.00 | CCCN(C[C@@H](O)c1cccnc1)C(=O)Cc1ccc(C(F)(F)F)c(F)c1 [compound 105, 2-[3-fluoro-4-(trifluoromethyl)phenyl]-N-[(2S)-2-hydroxy-2-(3-pyridyl)ethyl]-N-propyl-acetamide] |
| 6.00 to 7.00 | CCCN(C[C@@H](O)c1cccnc1)C(=O)Cc1ccc(C(F)(F)F)cn1 [compound 106, N-[(2S)-2-hydroxy-2-(3-pyridyl)ethyl]-N-propyl-2-[5-(trifluoromethyl)-2-pyridyl]acetamide] |
| ≥ 7.00 | CCCN(C[C@@H](O)c1cccnc1)C(=O)N1Cc2cc(Cl)c(Cl)cc2C1 [compound 107, 5,6-dichloro-N-[(2S)-2-hydroxy-2-(3-pyridyl)ethyl]-N-propyl-isoindoline-2-carboxamide] |
| < 6.00 | CCCN(C[C@@H](O)c1cccnc1)C(=O)Cc1ccc(F)cn1 [compound 108, 2-(5-fluoro-2-pyridyl)-N-[(2S)-2-hydroxy-2-(3-pyridyl)ethyl]-N-propyl-acetamide] |

| pIC50 | Structure (SMILES) |
| --- | --- |
| ≥ 7.00 | CCCN(CC(O)c1cnccc1OC)C(=O)Cc1ccc(Cl)c(Cl)c1 (stereo not shown) [compound 109, 2-(3,4-dichlorophenyl)-N-[2-hydroxy-2-(4-methoxy-3-pyridyl)ethyl]-N-propyl-acetamide] |
| 6.00 to 7.00 | CCCN(C[C@@H](O)c1cccnc1)C(=O)C1Cc2cc(F)c(F)cc2C1 [compound 110, 5,6-difluoro-N-[(2S)-2-hydroxy-2-(3-pyridyl)ethyl]-N-propyl-indane-2-carboxamide] |
| < 6.00 | CCCN(CC(O)c1cncc(C#N)c1)C(=O)Cc1ccc(Cl)c(Cl)c1 (stereo not shown) [compound 111, N-[2-(5-cyano-3-pyridyl)-2-hydroxyethyl]-2-(3,4-dichlorophenyl)-N-propyl-acetamide] |
| 6.00 to 7.00 | CCCN(CC(O)c1cncc(F)c1)C(=O)Cc1ccc(C(F)(F)F)nc1 (stereo not shown) [compound 112, N-[2-(5-fluoro-3-pyridyl)-2-hydroxyethyl]-N-propyl-2-[6-(trifluoromethyl)-3-pyridyl]acetamide] |
| < 6.00 | CCCN(CC(O)c1cnccn1)C(=O)Cc1ccc(C(F)(F)F)nc1 (stereo not shown) [compound 113] |
| < 6.00 | CCCN(CC(O)c1ccc(C(F)(F)F)nc1)C(=O)Cc1ccc(Cl)c(Cl)c1 (stereo not shown) [compound 114, 2-(3,4-dichlorophenyl)-N-[2-hydroxy-2-[6-(trifluoromethyl)-3-pyridyl]ethyl]-N-propyl-acetamide] |
| < 6.00 | CCCN(CC(O)c1ccc(=O)[nH]c1)C(=O)Cc1ccc(Cl)c(Cl)c1 (stereo not shown) [compound 115, 2-(3,4-dichlorophenyl)-N-[2-hydroxy-2-(6-oxo-1 H-pyridin-3-yl)ethyl]-N-propyl-acetamide] |
| 6.00 to 7.00 | CCCN(CC(O)c1cccnn1)C(=O)Cc1ccc(OC(F)(F)F)c(Cl)c1 (stereo not shown) [compound 116] |
| < 6.00 | CCCN(CC(O)c1cccnc1)C(=O)C(C)c1ccc(Cl)c(Cl)c1 (stereo not shown) [compound 117, 2-(3,4-dichlorophenyl)-N-[2-hydroxy-2-(3-pyridyl)ethyl]-N-propyl-propanamide] |
| < 6.00 | CCCN(C[C@@H](O)c1cccnc1)C(=O)Cc1cccc2ncsc12 [compound 118, 2-(1,3-benzothiazol-7-yl)-N-[(2S)-2-hydroxy-2-(3-pyridyl)ethyl]-N-propyl-acetamide] |
| ≥ 7.00 | CCCN(C[C@@H](O)c1cccnc1)C(=O)Cc1ccc(C#N)c(F)c1 [compound 119, 2-(4-cyano-3-fluoro-phenyl)-N-[(2S)-2-hydroxy-2-(3-pyridyl)ethyl]-N-propyl-acetamide] |
| ≥ 7.00 | CCCN(C[C@@H](O)c1cccnc1)C(=O)C1Cc2ccc(Cl)c(Cl)c2C1 (stereo partly drawn) [compound 120, 4,5-dichloro-N-[(2S)-2-hydroxy-2-(3-pyridyl)ethyl]-N-propyl-indane-2-carboxamide] |
| < 6.00 | CCCN(CC(O)c1ccc(=O)n(C)c1)C(=O)Cc1ccc(Cl)c(Cl)c1 (stereo not shown) [compound 121, 2-(3,4-dichlorophenyl)-N-[2-hydroxy-2-(1-methyl-6-oxo-3-pyridyl)ethyl]-N-propyl-acetamide] |
| < 6.00 | CCCN(C(=O)Cc1ccc(Cl)c(Cl)c1)C(CO)c1ccc(=O)n(C)c1 (stereo not shown) [compound 122, 2-(3,4-dichlorophenyl)-N-[2-hydroxy-1-(1-methyl-6-oxo-3-pyridyl)ethyl]-N-propyl-acetamide] |
| < 6.00 | CCCN(CC(O)c1cccnc1)C(=O)Cc1cccnc1 (stereo not shown) [compound 123, N-[2-hydroxy-2-(3-pyridyl)ethyl]-N-propyl-2-(3-pyridyl)acetamide] |
| ≥ 7.00 | CCCN(C[C@@H](O)c1cccnc1)C(=O)Cc1cnc(C(F)(F)F)nc1 [compound 124, N-[(2S)-2-hydroxy-2-(3-pyridyl)ethyl]-N-propyl-2-[2-(trifluoromethyl)pyrimidin-5-yl]acetamide] |
| 6.00 to 7.00 | CCCN(CC(O)c1cncc(F)c1)C(=O)Cc1ccc(Cl)c(Cl)c1 (stereo not shown) [compound 126, 2-(3,4-dichlorophenyl)-N-[2-(5-fluoro-3-pyridyl)-2-hydroxyethyl]-N-propyl-acetamide] |
| < 6.00 | CCCN(C[C@@H](O)c1cccnc1)C(=O)Cc1ccnc(C(F)(F)F)c1 [compound 127, N-[(2S)-2-hydroxy-2-(3-pyridyl)ethyl]-N-propyl-2-[2-(trifluoromethyl)-4-pyridyl]acetamide] |
| ≥ 7.00 | CCCN(C[C@@H](O)c1cccnc1)C(=O)C1Cc2cnc(C(F)(F)F)cc2C1 (stereo partly drawn) [compound 128, N-[(2S)-2-hydroxy-2-(3-pyridyl)ethyl]-N-propyl-3-(trifluoromethyl)-6,7-dihydro-5H-cyclopenta[c]pyridine-6-carboxamide] |
| 6.00 to 7.00 | CCCN(CC(O)c1cnccn1)C(=O)C1Cc2cc(Cl)c(Cl)cc2C1 (stereo not shown) [compound 129] |
| ≥ 7.00 | CCCN(C[C@@H](O)c1cccnc1)C(=O)Cc1cnc(C(C)(C)C)nc1 [compound 130, 2-(2-tert-butylpyrimidin-5-yl)-N-[(2S)-2-hydroxy-2-(3-pyridyl)ethyl]-N-propyl-acetamide] |

| Structure (SMILES) | pIC50 |
| --- | --- |
| CCCN(C[C@@H](O)c1cccnc1)C(=O)Cc1ccc(C#N)c(Cl)c1 [compound 100, 2-(3-chloro-4-cyano-phenyl)-N-[(2S)-2-hydroxy-2-(3-pyridyl)ethyl]-N-propyl-acetamide] | ≥ 7.00 |

Reference: patent US20230339890A1, “AMINO ALCOHOL COMPOUNDS AND USES THEREOF” (Kineta, Inc., priority 2020, published 2023)
